Where two headings read alike, the source gives them in different places. A value given as a limit tells only on which side of the number the result lay.

The nature of data set [1]: ATP viability assay (CellTiter-Glo) in replicon-harboring Huh7.5 cells. Format: cell-based, human. Particulars: human; 24 hours post-treatment; Huh7.5 cells harboring transient genotype 1b replicon. How it is done: Inhibition of HCV replication by AP0089652, AP0080978 (enantiomer 2 from Example 1) and AP0080977 (enantiomer 1 from Example 1) were assayed by exposing cells harboring an HCV genotype 1b replicons to the compounds and quantitating HCV replicon levels following exposure. The replicon used in these studies was a transient genotype 1b subgenomic replicon generated from the Con1 strain. In this replicon, the HCV internal ribosome entry site (IRES) within the 5′ non-translated region (NTR) drives expression of the first 32 amino acids of the core protein fused to humanized Renilla luciferase (hRluc). The encephalomycarditis IRES lies 3′ to the hRluc open reading frame (ORF) and drives expression of non-structural (NS) proteins NS3 through NS5B. Huh7.5 cells (U.S. patent application Ser. No. 10/534,571) harboring this replicon were seeded into 96-well plates at 20,000 cells per well in medium containing 10% FBS, 1× penicillin/streptomycin, 1× non-essential amino acids, and 100 ng/ml Fungizone. After a four hour attachment period, compound was added to wells using a five point 3-fold serial dilution series with four replicate treatments per dose. […] Compound-mediated HCV inhibition and toxicity were assayed 24 hours post-treatment using Renilla luciferase readout and an ATP viability assay (CellTiter-Glo, Promega, Madison, Wis., USA), respectively. […]
For orientation: Cellular ATP, detected with luciferase, serves as a proxy for viable cell number.

Data set [2] concerns stable genotype 1b (Con1 strain) subgenomic replicon. In words: EC50 in Clone VI cells, quantitative RT-PCR of HCV RNA. The data set is classed as cell-based. Particulars: Hepatitis C virus, 72 hour. How it is done:
Inhibition of HCV replication by compound AP0080978 (enantiomer 2 from Example 1) was also assayed by exposing cells harboring either HCV genotype 1a, HCV genotype 1b, HCV genotype 2a replicons. […] Final DMSO percentage was 1% in a total volume of 1 ml. After a 72 hour treatment period, total RNA was extracted, quantified via RiboGreen™ assay (Invitrogen-Molecular Probes, Eugene, Oreg., USA), and equivalent amounts of RNA were subjected to quantitative RT-PCR to quantify HCV RNA levels. […] For each replicate culture, HCV RNA levels were measured by blot hybridization and normalized to β-actin RNA levels. Cytotoxicity was measured using an established neutral red dye uptake assay (Korba and Gerin (1992) Antiviral Res 19:55; Okuse et al (2005) Antiviral Res 65: 23). […] Activity and toxicity against genotype 2a was evaluated in Huh7 cells harboring a stable hRluc-containing subgenomic genotype 2a replicon containing sequence from both J6 and JFH1 strains. […]
Additional compounds of formula (I) shown in FIG. 1 were also shown to inhibit HCV RNA replication. The effects of various compounds of formula (I) on HCV RNA replicon levels were determined by measuring HCV replicon RNA levels in cells treated with various concentrations of the compounds. […] Total RNA was extracted 72 hours later, and HCV and GAPDH RNA levels were quantified via quantitative RT-PCR. […]

For data set [3], the system named is replicon RNA from 80978-resistant and control Clone A cells in Huh7b cells. In words: Sensitivity of Huh7b cells electroporated with total RNA from resistant or control Clone A cells. Format: cell-based, hepatitis C virus. From the text:
To determine whether resistance was replicon-associated, total RNA was extracted from 80978-resistant and control cells and re-introduced via electroporation into naïve Huh7b cells, the parental cell line of Clone A cells. Electroporated cells that harbored replicon were selected with Geneticin™, pooled, and assayed for sensitivity to 80978.

In turn, `O=C(NCc1cccs1)c1nn2c(c1Cl)N[C@H](c1ccco1)C[C@@H]2C(F)(F)F` (single isomer, unassigned) [Compound 80978] showed a CC50 at 24 h in data set [1] greater than 100000 nM. Besides, the half-maximal effective concentration (EC50) in data set [2] (FIG. 2, compounds other than 80978 as racemates, read-out: EC50 for inhibition of HCV RNA replication) was 900 nM; in data set [2] (Experiment 1, genotype 1b, RT-PCR, read-out: EC50), 900 to 1750 nM. Further, the “sensitivity to 80978” value was “maintained resistance” in data set [3] (Huh7b cells electroporated with total RNA from 80978-resistant cells) and “sensitive” in data set [3] (Huh7b cells electroporated with total RNA from control cells).

The term CC50 denotes the concentration at which the toxic effect on the cells reaches its halfway point. The EC50 is the concentration needed to bring the measured effect to its halfway point.

For the origin of these results see patent US8809344B2, “Compounds, compositions, and methods for control of hepatitis C viral infections” (priority 2008, dated 2014).
